Assay results from patent publication US20260234147A1 (priority 2023, published 2026).
Where two headings read alike, the source gives them in different places.

Columns and labels:
hMOR [1] = target: T1, hMOR (Homo sapiens, UniProt P35372); experiment: cell-based; parameters: expressed in transfected cells; conditions: for Emax: CHO
hDOR = hDOR (Homo sapiens, UniProt P41143); experiment: Radioligand binding assay (Eurofins Cerep), [3H]DADLE displacement
hMOR [2] = target: T1, hMOR; experiment: Radioligand binding assay (Eurofins Cerep), [3H]DAMGO displacement
α2C adrenergic receptor = target: T2, α2C adrenergic receptor (Homo sapiens, UniProt P18825); experiment: Radioligand binding assay (Eurofins Cerep), [3H]RX 821002 displacement; conditions: Table A1, data summary #1; read-out: Alpha2C Ki ± SEM
T2 construct: Eurofins Cerep (contract screening)
T2 sequence (P18825 1-462): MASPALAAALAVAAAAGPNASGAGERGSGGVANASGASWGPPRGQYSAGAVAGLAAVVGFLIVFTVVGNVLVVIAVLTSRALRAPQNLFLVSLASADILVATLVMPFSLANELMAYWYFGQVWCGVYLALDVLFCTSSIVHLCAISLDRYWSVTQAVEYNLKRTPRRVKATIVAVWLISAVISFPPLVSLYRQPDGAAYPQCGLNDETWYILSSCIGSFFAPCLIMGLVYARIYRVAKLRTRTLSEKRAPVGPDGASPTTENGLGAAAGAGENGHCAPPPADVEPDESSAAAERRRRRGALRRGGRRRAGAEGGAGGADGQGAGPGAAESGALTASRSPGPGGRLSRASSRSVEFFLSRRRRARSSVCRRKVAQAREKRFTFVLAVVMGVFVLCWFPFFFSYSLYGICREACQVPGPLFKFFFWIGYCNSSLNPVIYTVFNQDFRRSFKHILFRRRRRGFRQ

hMOR [3] = target: T1, hMOR; experiment: Cyclic adenosine 3′,5′-monophosphate (cAMP) assay in hMOR-CHO cells; format: cell-based; conditions: N=1, control agonist DAMGO
[4] = Metabolic stability in rat liver microsomes; format: in vitro ADME; conditions: for RLM stability: rat liver microsomes 1 mg/ml, substrate 1 μM, NADPH, 37° C.
Protocol: In vitro metabolic stability of each compound was determined using rat liver microsomes in triplicate. Verapamil was used as a positive control to check the activity of the microsomes. The incubation mixtures consisted of rat liver microsomes (1 mg microsomal protein/ml), substrate (1 μM), and reduced NADPH (1 mM) in a total volume of 0.4 ml potassium phosphate buffer (50 mM, pH 7.4). Reactions were initiated with the addition of NADPH and kept in an incubator shaker at 37° C. Aliquots of 25 μl were withdrawn at 0, 5, 10, 15, 30, and 60 min and mixed with 125 μl of acetonitrile with formic acid (0.1% v/v) containing phenacetin (50 ng/ml; internal standard) for the termination of the reaction. The samples were then vortex mixed and filtered through a […] 96-well membrane filtration plate under centrifugation at speed of 2000×g for 5 min at 4° C. The filtrates were subjected to UPLC-mass spectrometry (MS/MS) analysis.
The intrinsic clearance of the compounds was calculated using a half-life employing the ‘substrate depletion’ approach. The apparent half-life was calculated from the pseudo-first-order rate constants obtained by linear regression of log (concentration) and time plots. The in vitro intrinsic clearance of IFN was estimated using the formula: […]
Where k is the slope of the line obtained by plotting the natural logarithmic of the percentage of parent remaining versus time and V is the volume of incubation.
The in vitro intrinsic clearance was scaled to whole-organ (hepatic) in vivo intrinsic CL (CLint,H) using the scaling factors available in the literature using equation (Mahmood I. Application of allometric principles for the prediction of pharmacokinetics in human and veterinary drug development. Advanced drug delivery reviews, 2007, 59(11), 1177-1192)
MPPGL represents the microsomal protein per gram of Sprague Dawley rat liver (45 mg/g) and liver weight per kg body weight was 40 g/kg.

hKOR = hKOR (Homo sapiens, UniProt P41145); experiment: Radioligand binding assay (Eurofins Cerep), [3H]U69,593 displacement; conditions: read-out: KOR Ki ± SEM
α2A adrenergic receptor = target: T3, α2A adrenergic receptor (Homo sapiens, UniProt P08913); experiment: Radioligand binding assay (Eurofins Cerep), [3H]RX 821002 displacement
T3 construct: Eurofins Cerep (contract screening)
T3 sequence (P08913 1-465): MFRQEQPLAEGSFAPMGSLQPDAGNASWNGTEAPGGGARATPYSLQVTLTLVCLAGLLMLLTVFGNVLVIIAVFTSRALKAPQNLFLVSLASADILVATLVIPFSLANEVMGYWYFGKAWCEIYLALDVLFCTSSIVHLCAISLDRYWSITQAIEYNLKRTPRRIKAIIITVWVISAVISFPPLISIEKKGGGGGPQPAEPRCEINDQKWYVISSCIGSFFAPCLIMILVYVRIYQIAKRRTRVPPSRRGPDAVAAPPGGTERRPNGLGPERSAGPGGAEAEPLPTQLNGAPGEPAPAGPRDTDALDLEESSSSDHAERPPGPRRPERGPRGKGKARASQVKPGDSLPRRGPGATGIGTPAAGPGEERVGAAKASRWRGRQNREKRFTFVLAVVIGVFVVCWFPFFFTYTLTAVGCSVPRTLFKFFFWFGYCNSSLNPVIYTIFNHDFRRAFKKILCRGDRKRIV

[5] = DOR Ki ± SEM (nM), Table A1, data summary #1
[6] = DOR Ki ± SEM (nM), Table A4, data summary #2
[7] = Table A4, data summary #2, read-out: MOR Ki ± SEM
[8] = Alpha2A Ki ± SEM (nM), Table A4, data summary #2

T1 sequence (P35372 whole entry): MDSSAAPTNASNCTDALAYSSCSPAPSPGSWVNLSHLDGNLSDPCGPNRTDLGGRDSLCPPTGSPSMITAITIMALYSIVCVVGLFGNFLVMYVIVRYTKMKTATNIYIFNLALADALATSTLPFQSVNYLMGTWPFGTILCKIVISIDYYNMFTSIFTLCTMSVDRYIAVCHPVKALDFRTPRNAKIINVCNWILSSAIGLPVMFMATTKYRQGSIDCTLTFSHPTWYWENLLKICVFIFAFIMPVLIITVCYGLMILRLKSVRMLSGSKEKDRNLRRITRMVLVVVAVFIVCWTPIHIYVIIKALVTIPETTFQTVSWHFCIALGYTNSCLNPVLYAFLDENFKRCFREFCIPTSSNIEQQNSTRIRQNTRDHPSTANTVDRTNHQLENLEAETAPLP
Sequence of hDOR (P41143 whole entry): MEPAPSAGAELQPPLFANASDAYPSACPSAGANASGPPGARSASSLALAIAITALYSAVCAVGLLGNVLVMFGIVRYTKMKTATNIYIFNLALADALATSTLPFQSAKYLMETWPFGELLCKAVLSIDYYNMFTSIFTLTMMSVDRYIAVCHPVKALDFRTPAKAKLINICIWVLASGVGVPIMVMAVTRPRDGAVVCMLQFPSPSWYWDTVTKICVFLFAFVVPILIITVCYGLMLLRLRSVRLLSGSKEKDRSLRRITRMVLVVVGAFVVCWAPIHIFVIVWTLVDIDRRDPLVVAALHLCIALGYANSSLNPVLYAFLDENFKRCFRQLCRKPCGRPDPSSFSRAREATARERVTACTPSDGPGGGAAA
Sequence of hKOR (P41145 whole entry): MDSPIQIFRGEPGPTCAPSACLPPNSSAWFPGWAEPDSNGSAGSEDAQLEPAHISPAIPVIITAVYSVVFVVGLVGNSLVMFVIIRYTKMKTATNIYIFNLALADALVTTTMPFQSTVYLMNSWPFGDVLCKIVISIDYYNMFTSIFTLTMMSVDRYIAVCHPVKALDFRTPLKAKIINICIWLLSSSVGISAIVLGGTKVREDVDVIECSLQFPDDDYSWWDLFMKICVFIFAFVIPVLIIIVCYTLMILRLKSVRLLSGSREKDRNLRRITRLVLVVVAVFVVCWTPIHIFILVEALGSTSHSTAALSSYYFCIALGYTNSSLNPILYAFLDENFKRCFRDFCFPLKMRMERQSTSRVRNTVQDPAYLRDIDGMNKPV

Row | SMILES | Ki (hDOR; [5]) [nM] | Ki (hDOR; [6]) [nM] | Ki (hMOR [2]; [7]) [µM] | functional activity in cAMP assay (hMOR [3]) | RLM stability [4] [min] | Ki (hKOR; Table A1, data summary #1) [µM] | Ki (hKOR; Table A4, data summary #2) [µM] | Ki (α2A adrenergic receptor; [8]) [nM] | Ki (hMOR [2]; read-out: Ki at hMOR) [µM] | other results
1 | CC[C@@H]1CN2CCc3c([nH]c4cccc(OC)c34)[C@@H]2C[C@@H]1/C(=C\OC)C(=O)N(C)C [SUSM-501, (E)-2-((2S,3S,12bS)-3-ethyl-8-methoxy-1,2,3,4,6,7,12,12b-octahydroindolo[2,3-a]quinolizin-2-yl)-3-methoxy-N,N-dimethylacrylamide] | 6490 ± 3030 | 6490 ± 3030 | 0.429 ± 0.0757 | partial agonist activity | 6 | 3.07 ± 0.569 | 3.07 ± 0.569 | 1810 ± 319 |  | functional character at MOR (hMOR [1]): partial antagonist; Emax (hMOR [1]; read-out: MOR Emax ± SEM (% DAMGO), Table A1, data summary #1): -4.05 ± 4.03%; Emax (hMOR [1]; read-out: Emax, functional activity at MOR): -4.05%; Ki (hMOR [2]; Table A1, data summary #1, read-out: MOR Ki ± SEM): 0.429 ± 0.0757 µM; Ki (α2C adrenergic receptor): 0.42 ± 0.113 µM; functional activity in cAMP assay (hMOR [3]; listed as SUSM 501): partial agonist; Whole liver clearance, CL int, H ([4]; in vitro intrinsic clearance in RLM scaled to whole organ (rat)): 128.8 mL/min/kg; Ki (α2A adrenergic receptor; Alpha2A Ki ± SEM (nM), Table A1, data summary #1): 1810 ± 319 nM
2 | CC[C@@H]1CN2CCc3c([nH]c4cccc(OC)c34)[C@@H]2C[C@@H]1/C(=C\OC)C(=O)N(C)C1CCCCC1 [SUSM-523, (E)-N-cyclohexyl-2-((2S,3S,12bS)-3-ethyl-8-methoxy-1,2,3,4,6,7,12,12b-octahydroindolo[2,3-a]quinolizin-2-yl)-3-methoxy-N-methylacrylamide] | 6490 ± 962 | 8290 ± 1020 | 0.049 ± 0.014 | antagonists | <5 | 2.64 ± 0.685 | 1.95 ± 0.611 | 187 ± 29 | 0.0819 | functional activity in cAMP assay (hMOR [3]; listed as SUSM 523): antagonist
3 | CC[C@@H]1CN2CC[C@@]3(O)C(=Nc4cccc(OC)c43)[C@@H]2C[C@@H]1/C(=C\OC)C(=O)N(C)C [SUSM-524, (E)-2-((2S,3S,7aS,12bS)-3-ethyl-7a-hydroxy-8-methoxy-1,2,3,4,6,7,7a,12b-octahydroindolo[2,3-a]quinolizin-2-yl)-3-methoxy-N,N-dimethylacrylamide] |  |  | 0.09 ± 0.014 | agonist activity | <5 | 9.15 ± 1.1 | 9.15 ± 1.1 |  | 0.11 | Ki (hDOR; Table A4, data summary #2, read-out: DOR Ki ± SEM): 802 ± 212 nM; potency at MOR relative to SUSM-501 (hMOR [2]): 4 fold; functional activity in cAMP assay (hMOR [3]; listed as SUSM 524): agonist; Ki (α2A adrenergic receptor; Table A4, data summary #2, read-out: Alpha2A Ki ± SEM): > 10000 nM
